Assay results taken from patent publication US8389247B2, “Physiogenomic method for predicting diabetes and metabolic syndromes induced by psychotropic drugs” (priority 2006, dated 2013).

Assays:
[1] = Outcome variables of patients on each psychotropic drug broken down by demographic factors (Covariates tables); assay type: in vivo, human
Description: Various SNPs associated with, for example, the observation of various parameters of metabolic syndromes in patients on psychotropic drugs were screened. The endpoints analyzed were the blood levels of LDL, HDL, and glucose; blood pressure; body mass index; waist circumference; and metabolic syndromes index. The physiogenomic model was developed using the following procedure: 1) Establish a covariate model using only the demographic and clinical variables, 2) Screen for associated genetic markers by testing each SNP against the unexplained residual of the covariate model, and 3) Establish a revised model incorporating the significant associations from the SNP screen.

[2] = cited from earlier work

## Cc1cc2c(s1)Nc1ccccc1N=C2N1CCN(C)CC1 [olanzapine]
[1]; Age 20-30
  BM (body mass): 87.06
  Glucose (blood glucose level): 88.65
  HDL (HDL cholesterol level): 48.55
  LDL (LDL cholesterol level): 104.10
  Log (TG) (triglyceride level): 5.086
  TC (total cholesterol level): 189.00
  Waist (waist circumference): 99.18
  dBP (diastolic blood pressure): 75.15
  sBP (systolic blood pressure): 118.20
[1]; Age 30-40
  BM (body mass): 83.17
  Glucose (blood glucose level): 92.29
  HDL (HDL cholesterol level): 47.68
  LDL (LDL cholesterol level): 103.73
  Log (TG) (triglyceride level): 5.168
  TC (total cholesterol level): 189.82
  Waist (waist circumference): 97.82
  dBP (diastolic blood pressure): 74.14
  sBP (systolic blood pressure): 117.32
[1]; Age 40-50
  BM (body mass): 79.34
  Glucose (blood glucose level): 92.47
  HDL (HDL cholesterol level): 52.40
  LDL (LDL cholesterol level): 107.00
  Log (TG) (triglyceride level): 4.968
  TC (total cholesterol level): 202.00
  Waist (waist circumference): 98.32
  dBP (diastolic blood pressure): 78.10
  sBP (systolic blood pressure): 119.10
[1]; Age 50-60
  BM (body mass): 95.73
  Glucose (blood glucose level): 86.67
  HDL (HDL cholesterol level): 49.67
  LDL (LDL cholesterol level): 104.00
  Log (TG) (triglyceride level): 5.373
  TC (total cholesterol level): 204.67
  Waist (waist circumference): 105.80
  dBP (diastolic blood pressure): 87.00
  sBP (systolic blood pressure): 136.33
[1]; Age 70-80
  BM (body mass): 44.40
  Glucose (blood glucose level): 92.00
  HDL (HDL cholesterol level): 68.00
  LDL (LDL cholesterol level): 94.00
  Log (TG) (triglyceride level): 4.159
  TC (total cholesterol level): 174.0
  Waist (waist circumference): 65.00
  dBP (diastolic blood pressure): 66.00
  sBP (systolic blood pressure): 100.0
[1]; Age <20
  BM (body mass): 65.00
  Glucose (blood glucose level): 109.00
  HDL (HDL cholesterol level): 28.00
  LDL (LDL cholesterol level): 68.00
  Log (TG) (triglyceride level): 4.787
  TC (total cholesterol level): 120.00
  Waist (waist circumference): 96.00
  dBP (diastolic blood pressure): 77.00
  sBP (systolic blood pressure): 109.00
[1]; All patients on the drug
  BM (body mass): 82.90
  Glucose (blood glucose level): 91.22
  HDL (HDL cholesterol level): 49.45
  LDL (LDL cholesterol level): 104.11
  Log (TG) (triglyceride level): 5.072
  TC (total cholesterol level): 192.60
  Waist (waist circumference): 98.21
  dBP (diastolic blood pressure): 76.12
  sBP (systolic blood pressure): 118.58
[1]; Gender female
  BM (body mass): 82.39
  Glucose (blood glucose level): 97.53
  HDL (HDL cholesterol level): 51.89
  LDL (LDL cholesterol level): 118.94
  Log (TG) (triglyceride level): 4.985
  TC (total cholesterol level): 212.16
  Waist (waist circumference): 100.74
  dBP (diastolic blood pressure): 75.84
  sBP (systolic blood pressure): 116.79
[1]; Gender male
  BM (body mass): 83.10
  Glucose (blood glucose level): 88.98
  HDL (HDL cholesterol level): 48.48
  LDL (LDL cholesterol level): 98.54
  Log (TG) (triglyceride level): 5.107
  TC (total cholesterol level): 184.85
  Waist (waist circumference): 97.21
  dBP (diastolic blood pressure): 76.23
  sBP (systolic blood pressure): 119.29
[1]; Heritage AA
  BM (body mass): 87.38
  Glucose (blood glucose level): 98.31
  HDL (HDL cholesterol level): 54.00
  LDL (LDL cholesterol level): 109.14
  Log (TG) (triglyceride level): 5.060
  TC (total cholesterol level): 197.57
  Waist (waist circumference): 96.82
  dBP (diastolic blood pressure): 77.00
  sBP (systolic blood pressure): 119.79
[1]; Heritage Cauc.
  BM (body mass): 81.98
  Glucose (blood glucose level): 89.24
  HDL (HDL cholesterol level): 48.16
  LDL (LDL cholesterol level): 103.53
  Log (TG) (triglyceride level): 5.115
  TC (total cholesterol level): 193.30
  Waist (waist circumference): 98.17
  dBP (diastolic blood pressure): 75.48
  sBP (systolic blood pressure): 118.38
[1]; Heritage Hisp.
  BM (body mass): 110.91
  Glucose (blood glucose level): 91.00
  HDL (HDL cholesterol level): 47.00
  LDL (LDL cholesterol level): 147.00
  Log (TG) (triglyceride level): 4.700
  TC (total cholesterol level): 216.00
  Waist (waist circumference): 144.00
  dBP (diastolic blood pressure): 91.00
  sBP (systolic blood pressure): 132.00
[1]; Heritage Other
  BM (body mass): 60.45
  Glucose (blood glucose level): 93.50
  HDL (HDL cholesterol level): 51.00
  LDL (LDL cholesterol level): 61.50
  Log (TG) (triglyceride level): 4.263
  TC (total cholesterol level): 128.50
  Waist (waist circumference): 86.00
  dBP (diastolic blood pressure): 78.50
  sBP (systolic blood pressure): 108.50
[1]; patients on the named drug
  BM: 82.90
  BMI: 27.12
  Glucose: 91.22
  HDL: 49.45
  LDL: 104.11
  Log (TG): 5.072
  MSI: −0.1290
  TC: 192.60
  Waist: 98.21
  dBP: 76.12
  sBP: 118.58
[2]
  treated patients with induced weight gain, diabetes and other metabolic derangements: 50%
